Like-named read-outs stand apart in the source and are kept apart here.

In test [1] the test system is Phakopsora pachyrhizi (wt). In kind it is in vivo. The note with it: Qo I-sensitive wt isolate (0% F129L).
The next test has as its system Microdochium nivale. Nature of the test: Micro titer plate test against Microdochium nivale causing snow mould (MONGNI). In kind it is cell-based. The note with it: Microdochium nivale, 168 h; 0.016 ppm; read-out: Fungal growth (%) MONGNI.
For the next test, the system named is Pyrenophora teres (wt). Kind of test: Micro titer plate test against Pyrenophora teres causing net blotch on barley (PYRNTE wt). In kind it is cell-based. As to conditions: 168 h, 0.25 ppm, read-out: Fungal growth (%) PYRNTE wt.
A further test deals with Cercospora sojina. Nature of the test: microbe, parasite or virus in culture. The note with it: Cercospora sojina, 168 h; 4 ppm; read-out: Fungal growth (%) CERCSO. In kind it is cell-based.
Test [2] deals with Pyrenophora teres (F129L). Nature of the test: Micro titer plate test against Pyrenophora teres causing net blotch on barley (PYRNTE F129L). In kind it is cell-based. As to conditions: 0.25 ppm.
For test [3], the system named is Phakopsora pachyrhizi (F129L). Nature of the test: Protective control of soybean rust on soybeans (PHAKPA P6). In kind it is in vivo. The note with it: for % PHAKPA (F129L) Disease level P6 at 4 ppm: protective P6, 4 ppm; for % PHAKPA (F129L) Disease level P6 at 4 ppm / % PHAKPA (F129L) Disease level P6 at 16 ppm: soybean rust F129L; for % PHAKPA (F129L) Disease level P6 at 16 ppm: protective P6, 16 ppm.

Test [4] has as its system Alternaria solani (F129L). Nature of the test: Micro titer plate test against Alternaria solani causing early blight (ALTESO F129L). The note with it: 0.016 ppm; for activity at 0.016 ppm: Alternaria solani, 168 h, read-out: Fungal growth (%) ALTESO F129L. In kind it is cell-based.
Test [5] deals with Colletotrichum orbiculare. Nature of the test: Micro titer plate test against Colletotrichum orbiculare causing anthracnose (COLLLA). The note with it: for activity at 0.063 ppm: Colletotrichum orbiculare, 168 h, read-out: Fungal growth (%) COLLLA. In kind it is cell-based.
For test [6], the system named is Phakopsora pachyrhizi (F129L). Kind of test: Protective control of soybean rust on soybeans (PHAKPA P2). In kind it is in vivo. As to conditions: for % PHAKPA (F129L) Disease level P2 at 4 ppm: protective P2, 4 ppm; for % PHAKPA (F129L) Disease level P2 at 4 ppm / % PHAKPA (F129L) Disease level P2 at 16 ppm: soybean rust F129L; for % PHAKPA (F129L) Disease level P2 at 16 ppm: protective P2, 16 ppm; for PHAKPA (F129L) Disease level (%) P2 at 4 ppm / PHAKPA (F129L) Disease level (%) P2 at 16 ppm: P2 protective, % diseased leaf area.

The next test has as its system Pyricularia oryzae. Nature of the test: microbe, parasite or virus in culture. In kind it is cell-based. The note with it: for activity at 0.016 ppm: Pyricularia oryzae, 168 h, read-out: Fungal growth (%) PYRIOR.
A further test deals with Alternaria solani (wt). Kind of test: microbe, parasite or virus in culture. In kind it is cell-based. The note with it: for activity at 0.25 ppm / activity at 0.016 ppm: Alternaria solani, 168 h, read-out: Fungal growth (%) ALTESO wt.
Another test relates to Septoria tritici. Nature of the test: microbe, parasite or virus in culture. In kind it is cell-based. The note with it: for activity at 0.25 ppm: Zymoseptoria tritici, 168 h, read-out: Fungal growth (%) SEPTTR.
A further test relates to Leptosphaeria nodorum. Nature of the test: Micro titer plate test against Leptosphaeria nodorum causing wheat leaf spots (LEPTNO). In kind it is cell-based. As to conditions: Parastagonospora nodorum, 168 h; 0.063 ppm; read-out: Fungal growth (%) LEPTNO.
Where [7] appears, read: P6 protective, % diseased leaf area.

As for `Cc1cccc(-n2nnn(C)c2=O)c1COc1ccn(-c2ccc(Cl)cc2)n1` [drawing 930], the “PHAKPA P1 DL Disease level (%)” value in test [1] (0.3 ppm) is given as 78%; in test [1] (1 ppm), 80%; in test [1] (3 ppm), 77%; in [1] (10 ppm), 48%; in test [1] (30 ppm) it was 30%; in test [1] (100 ppm), 18%. In addition, in test [1] (300 ppm), the “PHAKPA P1 DL Disease level (%)” value stood at 5%.
As for `CNC(=O)/C(=N/OC)c1cccc(C)c1CO/N=C(\SC)c1cccc(Cl)c1` [drawing 968], the activity at 0.016 ppm in the test on Microdochium nivale came out at 100%. The activity at 0.25 ppm with Pyrenophora teres (wt) is 76%. Further, in the test with Cercospora sojina, the activity at 4 ppm was 78%. Further, in test [2], the “Fungal growth (%) PYRNTE F129L” value is given as 80%.
For the compound `CNC(=O)/C(=N/OC)c1cccc(C)c1CO/N=C(\C)c1cccc(Cl)c1` [Ex. 157], the “PHAKPA (F129L) Disease level (%) P6 at 4 ppm” value in [3] (P6 protective, 4 ppm, % diseased leaf area) is recorded as 2%. Moreover, the “PHAKPA (F129L) Disease level (%) P6 at 16 ppm” value in test [3] (setting [7]) amounted to 1%. Moreover, the “% PHAKPA (F129L) Disease level P6 at 4 ppm” value in test [3] is recorded as 1%. In addition, in test [3], the “% PHAKPA (F129L) Disease level P6 at 16 ppm” value is 0%. Also, the activity at 0.016 ppm in test [4] came out at 57%; with Pyricularia oryzae it was 15%; in the test with Microdochium nivale, 56%. Further, in test [5], the activity at 0.063 ppm came to 63%. Besides, in [6], the “% PHAKPA (F129L) Disease level P2 at 4 ppm” value is 1%. In addition, in [6], the “% PHAKPA (F129L) Disease level P2 at 16 ppm” value is recorded as 0%. Moreover, the results for the activity at 0.25 ppm in the test with Pyrenophora teres (wt), in the test with Alternaria solani (wt) and with Septoria tritici were 54%, 27% and 20%, respectively. In addition, the activity at 4 ppm with Cercospora sojina came out at 36%. The “Fungal growth (%) PYRNTE F129L” value in test [2] came to 58%.
In the case of `CO/N=C(/C(=O)OC)c1cccc(C)c1CO/N=C(\C)c1cccc(Cl)c1` [Ex. 153], the “% PHAKPA (F129L) Disease level P6 at 4 ppm” value in [3] was found to be 22%. For the same compound, in [3], the “% PHAKPA (F129L) Disease level P6 at 16 ppm” value is 1%. For the same compound, the activity at 0.016 ppm turned out to be 68% in test [4], 50% in the test on Pyricularia oryzae, 75% in the test with Microdochium nivale and 71% in the test with Alternaria solani (wt) (0.016 ppm). Besides, the activity at 0.063 ppm (in test [5]; with Leptosphaeria nodorum) was 55% in each case. Also, the “PHAKPA (F129L) Disease level (%) P2 at 4 ppm” value (“PHAKPA … (%) P2 at 4 ppm” for short) in test [6] was 19%. For the same compound, the “PHAKPA (F129L) Disease level (%) P2 at 16 ppm” value in [6] is given as 5%. Also, the “% PHAKPA (F129L) Disease level P2 at 4 ppm” value in test [6] was found to be 12%. Further, in test [6], the “% PHAKPA (F129L) Disease level P2 at 16 ppm” value was 3%. Besides, the activity at 0.25 ppm with Pyrenophora teres (wt) was determined as 31%; in the test on Septoria tritici it was 0%. In addition, in the test on Cercospora sojina, the activity at 4 ppm was 26%.
`CO/N=C(/C(=O)OC)c1cccc(C)c1CO/N=C(\C)c1cccc(OC(F)(F)F)c1` [drawing 940]: the activity at 0.063 ppm in the test with Leptosphaeria nodorum was determined as 79%. In the test with Microdochium nivale, the activity at 0.016 ppm stood at 86%. For the same compound, in the test with Pyrenophora teres (wt), the activity at 0.25 ppm came to 87%. Further, the “Fungal growth (%) PYRNTE F129L” value in [2] came out at 84%.
`CO/N=C(/C(=O)OC)c1cccc(C)c1CO/N=C(/c1cccc(C)c1)C1CC1` [drawing 951]: the activity at 0.063 ppm in test [5] was 93%. Moreover, the activity at 0.016 ppm in the test with Pyricularia oryzae came out at 82%; with Microdochium nivale it was 84%. In addition, in the test on Septoria tritici, the activity at 0.25 ppm is 89%. Besides, in test [2], the “Fungal growth (%) PYRNTE F129L” value is 87%.
With `CO/N=C(/C(=O)OC)c1cccc(C)c1CO/N=C(\SC)c1cccc(Cl)c1` [drawing 960], the values for the activity at 0.016 ppm (in test [4]; in the test on Pyricularia oryzae; in the test with Alternaria solani (wt) (0.016 ppm)) were 100%, 88% and 94%, respectively. Moreover, the activity at 0.063 ppm in test [5] was determined as 82%. The activity at 0.25 ppm in the test with Septoria tritici turned out to be 39%.
For the compound `CNC(=O)/C(=N/OC)c1cccc(C)c1CO/N=C(\OC)c1cccc(C)c1` [drawing 957], the activity at 0.016 ppm in test [4] turned out to be 95%; in the test on Pyricularia oryzae it was 80%; with Alternaria solani (wt) (0.016 ppm), 93%. The activity at 0.063 ppm in [5] was determined as 81%. Besides, the activity at 0.25 ppm with Septoria tritici turned out to be 100%.
In the case of `CO/N=C(/C(=O)OC)c1cccc(C)c1CO/N=C(\C)c1cccc(C)c1` [Ex. 76], the “% PHAKPA (F129L) Disease level P6 at 4 ppm” value in test [3] is listed as 9%. Moreover, the “% PHAKPA (F129L) Disease level P6 at 16 ppm” value in test [3] came out at 0%. Besides, the activity at 0.016 ppm in [4] came to 37%; in the test on Pyricularia oryzae, 43%; in the test with Microdochium nivale, 35%; with Alternaria solani (wt) (0.016 ppm) it was 55%. Besides, the activity at 0.063 ppm (in test [5]; with Leptosphaeria nodorum) was 39% each time. Besides, the “PHAKPA … (%) P2 at 4 ppm” value in test [6] was 35%. Also, in test [6], the “PHAKPA (F129L) Disease level (%) P2 at 16 ppm” value is on record as 1%. In test [6], the “% PHAKPA (F129L) Disease level P2 at 4 ppm” value was 30%. Besides, the “% PHAKPA (F129L) Disease level P2 at 16 ppm” value in test [6] came to 3%. The activity at 0.25 ppm is 39% with Pyrenophora teres (wt) and 0% in the test on Septoria tritici. The activity at 4 ppm in the test on Cercospora sojina was found to be 28%. Further, in [2], the “Fungal growth (%) PYRNTE F129L” value is 66%.
Turning to `CO/N=C(/C(=O)OC)c1cccc(C)c1CO/N=C(\SC)c1cccc(C)c1` [drawing 950], in test [5], the activity at 0.063 ppm was 81%. In addition, the activity at 0.016 ppm with Pyricularia oryzae stood at 87%; with Microdochium nivale it was 69%. Moreover, the activity at 0.25 ppm in the test on Septoria tritici was 61%.
Consider `CNC(=O)/C(=N/OC)c1cccc(C)c1CO/N=C(\C)c1cccc(C)c1` [Ex. 77], for which the “PHAKPA (F129L) Disease level (%) P6 at 16 ppm” value in [3] (setting [7]) is on record as 20%. In test [3], the “% PHAKPA (F129L) Disease level P6 at 4 ppm” value amounted to 40% and the “% PHAKPA (F129L) Disease level P6 at 16 ppm” value worked out at 3%. For the same compound, the “Fungal growth (%) ALTESO F129L” value in test [4] is on record as 69%. Further, in [5] (0.063 ppm), the “Fungal growth (%) COLLLA” value worked out at 39%. In addition, in test [6], the “PHAKPA … (%) P2 at 4 ppm” value is 37%, the “% PHAKPA (F129L) Disease level P2 at 4 ppm” value is on record as 67% and the “% PHAKPA (F129L) Disease level P2 at 16 ppm” value was 4%. The “Fungal growth (%) PYRIOR” value in the test with Pyricularia oryzae (0.016 ppm) was determined as 20%. The “Fungal growth (%) ALTESO wt” value in the test on Alternaria solani (wt) (0.016 ppm) is 73%. The “Fungal growth (%) SEPTTR” value in the test on Septoria tritici (0.25 ppm) is listed as 49%.
For `CNC(=O)/C(=N/OC)c1cccc(C)c1CO/N=C(/c1cccc(C)c1)C1CC1` [drawing 958], the figures for the activity at 0.016 ppm (in test [4]; in the test with Pyricularia oryzae; in the test with Alternaria solani (wt) (0.016 ppm)) were 93%, 81% and 89%, respectively. In test [5], the activity at 0.063 ppm was determined as 93%. The activity at 0.25 ppm with Septoria tritici was determined as 87%.
For `CNC(=O)/C(=N/OC)c1cccc(C)c1CO/N=C(\SC)c1cccc(Cl)c1` [drawing 966], the figures for the activity at 0.016 ppm (in test [4]; in the test on Pyricularia oryzae) were 90% and 100%, respectively. The activity at 0.063 ppm in test [5] worked out at 82%. For the same compound, the activity at 0.25 ppm was 43% in the test with Alternaria solani (wt) and 59% with Septoria tritici.

Values taken from patent US20230172204A1 (BASF SE, priority 2020, published 2023).
